{
  "source": "patent US10647711B2",
  "about": "“Azepin-2-one derivatives as RSV inhibitors” (Enanta Pharmaceuticals, Inc., priority 2017, dated 2020)",
  "data": [
    {"tested_on": "Human RSV-A (“Long” strain)", "test": "RSV-A in vitro cytoprotection assay in HEp-2 cells (ATPlite readout)", "assay_type": "cell-based", "conditions": "human respiratory syncytial virus, 96 h, 4-day incubation, ATPlite cell viability (CPE protection)", "excerpt": "RSV is a single stranded negative sense RNA virus that causes respiratory tract infections which can be dangerous to infants, the elderly, and immunosuppressed individuals. Currently there is no vaccine, and therapeutic options are both costly and of limited effectiveness. These approved treatments are Ribavirin, and Palivizumab/Synagis (a monoclonal antibody). RSV has two genotypes, A and B, which differ primarily in the structure of the virus' surface “G” attachment protein. Our current primary screen focusses on RSV-A and uses an in vitro cytoprotection assay where compounds are added in 2-fold dilutions to cells which are then subjected to fully replicative viral particles. Cell viability is measured several days later along with separate measurements of compound cytotoxicity. This report focuses on the results of our most recent screening of compounds.\nHEp-2 cells, (originally derived from tumors grown in irradiated-cortisonised weanling rats that had been injected with epidermoid carcinoma tissue from a person's larynx, but later found to be indistinguishable from HeLa cells by PCR DNA analysis), were used for the culturing of genotype A, “Long” strain RSV. Flasks were inoculated with RSV and viral stocks were collected once cytopathic effect (CPE) was greater than 90%. Viral stocks in 25% sucrose media were snap frozen using liquid nitrogen to increase viral stability. Viral stock titers were quantified by tissue culture infectious dose 50% (TCID50) using 8,000 cells per well and 3-fold viral dilutions across a 96-well plate, cultured for 4 days.\nFollowing extensive parameter testing, the final assay is run as follows: HEp-2 cells are seeded into the inner 60 wells of a 96-well plate at 8,000 cells per well in a volume of 50 μL using Growth Media (DMEM without phenol red, 1% L-Glut, 1% Penn/Strep, 1% nonessential amino acids, 10% FBS). 2-fold serial dilutions of control and test compounds are added to the wells in duplicate in a total volume of 25 μL. Viral stock is then added to the wells in a volume of […] the total volume of each well to 100 μL. Each 96-well plate has a control column of 6 wells with cells and virus but no compound (negative control, max CPE), a column with cells but no compound or virus (positive control, minimum CPE), and a column with no cells or virus or compound (background plate/reagent control). The control wells with cells but no virus are given an additional 25 uL of growth media containing an equal quantity of sucrose as those wells receiving the viral stock in order to keep consistent in media and volume conditions. The outer wells of the plate are filled with 125 μL of growth media to act as a thermal and evaporative moat around the test wells. Following a 4-day incubation period, the plates are read using ATPlite (50 uL added per well), which quantifies the amount of ATP (a measure of cell health) present in each well. Assay plates are read using the Envision luminometer. […] EC50 ranges are as follows: A<1 μM; B 1-5 μM; C>5 μM.", "units": {"EC50": "nM"}, "values": [
      {"compound": "C#Cc1cnc(-c2nnc(N[C@H]3C=C(c4ccccc4)c4ccccc4NC3=O)o2)c(N2CCOCC2)c1", "note": "[Example 6]", "EC50": "< 1000"},
      {"compound": "O=C(N[C@H]1C=C(c2ccccc2)c2ccccc2NC1=O)c1ccccc1", "note": "[Example 17, (5)-N-(2-oxo-5-phenyl-2,3-dihydro-1H-benzo[b]azepin-3-yl)benzamide]", "EC50": "> 5000"},
      {"compound": "O=C1Nc2ccccc2C(c2ccccc2)=C[C@@H]1Nc1nc2ccccc2o1", "note": "[Example 16, (S)-3-(benzo[d]oxazol-2-ylamino)-5-phenyl-1,3-dihydro-2H-benzo[b]azepin-2-one]", "EC50": "> 5000"},
      {"compound": "O=C1Nc2ccccc2C(c2ccccc2)=C[C@H]1Nc1nnc(-c2nc(C3CC3)sc2N2CCOCC2)o1", "note": "[Example 12, (R)-3-((5-(2-cyclopropyl-5-morpholinothiazol-4-yl)-1,3,4-oxadiazol-2-yl)amino)-5-phenyl-1,3-dihydro-2H-benzo[b]azepin-2-one]", "EC50": "< 1000"},
      {"compound": "O=C1Nc2ccccc2C(c2ccccc2)=C[C@@H]1Nc1nnc(-c2ncc(C3CC3)cc2N2CCOCC2)o1", "note": "[Example 5]", "EC50": "< 1000"},
      {"compound": "O=C1Nc2ccccc2C(c2ccccc2)=C[C@@H]1Nc1nnc(-c2nc(-c3cccnc3)sc2N2CCOCC2)o1", "note": "[Example 13, (S)-3-((5-(5-morpholino-2-(pyridin-3-yl)thiazol-4-yl)-1,3,4-oxadiazol-2-yl)amino)-5-phenyl-1,3-dihydro-2H-benzo[b]azepin-2-one]", "EC50": "< 1000"},
      {"compound": "O=C1Nc2ccccc2C(c2ccccc2)=C[C@@H]1Nc1nnc(-c2ncc(C(F)(F)F)cc2N2CCOCC2)o1", "note": "[Example 10]", "EC50": "< 1000"},
      {"compound": "O=C1Nc2ccccc2C(c2ccccc2)=C[C@@H]1Nc1nnc(-c2ncc(Br)cc2N2CCOCC2)o1", "note": "[Example 7]", "EC50": "< 1000"},
      {"compound": "O=C1Nc2ccccc2C(c2ccccc2)=C[C@@H]1Nc1nnc(-c2nc(C3CC3)sc2N2CCOCC2)o1", "note": "[Example 11, (S)-3-((5-(2-cyclopropyl-5-morpholinothiazol-4-yl)-1,3,4-oxadiazol-2-yl)amino)-5-phenyl-1,3-dihydro-2H-benzo[b]azepin-2-one]", "EC50": "< 1000"},
      {"compound": "O=C1Nc2ccccc2C(c2ccccc2)=C[C@@H]1Nc1nnc(-c2ccc(F)cc2)o1", "note": "[Example 1, (S)-3-((5-(4-fluorophenyl)-1,3,4-oxadiazol-2-yl)amino)-5-phenyl-1,3-dihydro-2H-benzo[b]azepin-2-one]", "EC50": "1000 to 5000"},
      {"compound": "O=C1Nc2ccccc2C(c2ccccc2)=C[C@@H]1Nc1nnc(-c2ncc(C3CCC3)cc2N2CCOCC2)o1", "note": "[Example 9]", "EC50": "1000 to 5000"},
      {"compound": "O=C1Nc2ccccc2C(c2ccccc2)=C[C@@H]1Nc1nnc(-c2ccc(N3CCOCC3)cc2F)o1", "note": "[Example 3]", "EC50": "1000 to 5000"},
      {"compound": "O=C1Nc2ccccc2C(c2ccccc2)=C[C@H]1Nc1nnc(-c2nc(-c3cccnc3)sc2N2CCOCC2)o1", "note": "[Example 14, (R)-3-((5-(5-morpholino-2-(pyridin-3-yl)thiazol-4-yl)-1,3,4-oxadiazol-2-yl)amino)-5-phenyl-1,3-dihydro-2H-benzo[b]azepin-2-one]", "EC50": "1000 to 5000"},
      {"compound": "O=C(Nc1ccccc1F)N[C@H]1C=C(c2ccccc2)c2ccccc2NC1=O", "note": "[Example 15, (S)-1-(2-fluorophenyl)-3-(2-oxo-5-phenyl-2,3-dihydro-1H-benzo[b]azepin-3-yl)urea]", "EC50": "> 5000"},
      {"compound": "N#Cc1cnc(-c2nnc(N[C@H]3C=C(c4ccccc4)c4ccccc4NC3=O)o2)c(N2CCOCC2)c1", "note": "[Example 8]", "EC50": "< 1000"},
      {"compound": "O=C1Nc2ccccc2C(c2ccccc2)=C[C@@H]1Nc1nnc(-c2cccnc2N2CCOCC2)o1", "note": "[Example 4]", "EC50": "1000 to 5000"},
      {"compound": "O=C1Nc2ccccc2C(c2ccccc2)=C[C@@H]1Nc1nnc(-c2cn(-c3ccccn3)nc2N2CCOCC2)o1", "note": "[Example 2]", "EC50": "1000 to 5000"}
    ]}
  ]
}
